On the set-up of data set [1]: method as in Yang et al., 2007. The settings on record: ref Yang et al., 2007; cited from earlier work.
Data set [2] can be described thus: Repeated administration, drug concentrations of plasma and brain. Type of data set: in vivo, SD rats. The settings on record: for Detection in brain tissue: after repeated administration; for Mean concentrations±sd in brain after multiple doses: brain homogenate; for Effect on plasma concentration of DHC: repeated administration with CUR. The method, then:
(§1) Plasma or brain homogenate of SD rats was taken 50 μL, internal standard solution of 50 μL and protein precipitator of 150 μL were added. After eddy oscillation for 3 min, supernatant was separated by centrifugation.
The concentration of drugs in plasma and brain homogenate after repeated administration was determined according to the same grouping and administration method. The loading dose of 200 mg kg^−1 was given for the first time and half doses for four consecutive days.
(§2) Plasma was collected by centrifugation of blood at 3000 RPM for 10min, and stored at -80 °C. Brain tissue of SD rat was dissected, weighed and added with normal saline at a volume of 2 ml g^−1. After homogenating brain tissue for 3 min by a homogenizer at 14,000 RPM, the supernatant was collected after centrifugation at 12,000 RPM for 10 min.

Data set [3] can be described thus: Stability experiment in plasma and brain homogenate samples. Type of data set: in vitro ADME, SD rats. Conditions: for Recoveries after being kept at room temperature for 12 h: plasma samples. The procedure: Three blank samples of plasma and brain homogenate of SD rats were added into the mixed standard solution. The stability experiment included placing at room temperature for 12 h, repeatedly freeze-thaw for three times and frozen for 15 days.

Data set [4] in a line: Solubility in solvents and vehicles. The class given is physicochemical. The source says:
DMSO is a universal organic solvent that is mutually soluble with most solvents and has a protective effect on red blood cells, platelets, bone marrow and various tissue cells during cryopreservation ([Willson et al., 1965]).

Data set [5] is described as follows: Pharmacokinetic experiment, single intragastric administration, plasma by HPLC-UV. Conditions: for concentration at 40 min / concentration at 60 min / concentration at 90 min / concentration at 150 min / concentration at 210 min: SD (Sprague-Dawley); for concentration at 40 min / concentration at 60 min / concentration at 90 min / concentration at 150 min / concentration at 210 min / concentration at 20 min / concentration at 270 min / concentration at 330 min / AUC / Cmax / half-life / Tmax: rat, plasma, po; for concentration at 20 min / concentration at 270 min / concentration at 330 min: SD; for AUC / Cmax / half-life / Tmax: Sprague-Dawley, 150 mg/kg, PIP or ILE 150 mg kg^−1 oral together with CUR 200 mg kg^−1; for AUC: read-out: AUC(0-tn) (converted); for Cmax: read-out: Cmax; for half-life: read-out: T1/2(el); for Tmax: read-out: Tmax (converted); for Effect of combined administration with CUR on plasma concentration of DHC: single administration, drug-time curve. The class given is in vivo, SD rats. The procedure:
An Agilent 1200 HPLC system was used. […] The flow rate was set at 1 ml min^−1 and detection wavelength was 420, 340 and 323 nm. Injection volume was 5 μL. The column temperature was set at 30°C.
as §1
Blood samples were collected from tail vein at 20 min, 40 min, 1, 1.5, 2.5, 3.5, 4.5, and 5.5 h after intragastric administration.
as §2

In another data set the test system is rats. On the set-up: method as in Willson et al., 1965. The settings on record: intragastric administration, ref Willson et al., 1965; cited from earlier work.
The mark [6] stands for this setting: ILE compared with PIP at the same dose.
The mark [7] stands for this setting: Mean concentrations ±sd, ILE, Group C (CUR 200 mg kg^−1 and ILE 150 mg kg^−1 oral).
Setting [8] is: Group B (CUR 200 mg kg^−1 and PIP 150 mg kg^−1 oral), read-out: Mean concentrations ±sd, PIP.

Here are results for four compounds from publication PMC8586700 (Frontiers in Pharmacology, 2021).

Where two headings read alike, the source gives them in different places.

`COc1cc(/C=C/C(=O)CC(=O)/C=C/c2ccc(O)c(OC)c2)ccc1O` [CUR, Curcumin]: in data set [1], the Oral bioavailability was 1%. Also, the “Detection in brain tissue” value in data set [2] is on record as “could not be detected”. Further, in data set [3] (SD, rat, brain homogenate samples, read-out: Recovery after 12 h placement at room temperature), the recovery at 12 h was less than 15%. Moreover, the “Recoveries after repeated freezing-thawing for three times” value in data set [3] (brain homogenate) is “over 100%”. The “Recoveries after repeated freezing-thawing for three times” value in data set [3] (plasma) is “over 100%”. In data set [3], the “Recoveries after being kept at room temperature for 12 h” value is “less than 30%”. Also, in data set [4], the “Solubility in DMSO” value was “well dissolved”; the “Solubility in EtOH and glycerin” value was “slightly soluble”; the “Solubility in water and various plant extracted oils” value is “insoluble”.
In the case of `O=C(/C=C/c1ccc2c(c1)OCO2)N1CCCCC1` [ILE, Ilepcimide, reference compound], in data set [5] (setting [6]), the “AUC(0-tn) increased by” value was 32.1%, the “T1/2 decreased by” value is 40.2% and the “Tmax increased by” value was determined as 1.7 times. In data set [5] (setting [7]), this compound came in with a concentration at 40 min of 1600 ± 100 ng/mL, a concentration at 60 min of 2000 ± 500 ng/mL, a concentration at 90 min of 2800 ± 900 ng/mL and a concentration at 150 min of 5500 ± 1900 ng/mL. In data set [5] (setting [7]), this compound came in with a concentration at 210 min of 3400 ± 500 ng/mL, a concentration at 20 min of 1300 ± 800 ng/mL, a concentration at 270 min of 2200 ± 400 ng/mL and a concentration at 330 min of 1200 ± 800 ng/mL. In addition, in data set [5], the AUC is 15400 ng·h/mL, the Cmax stood at 5500 ± 2000 ng/mL, the half-life was 1.67 ± 0.287 h and the Tmax is 3.07 h. Moreover, the “Effect of combined administration with CUR on plasma concentration of DHC” value in data set [5] is on record as “could increase plasma concentration of DHC”. For the same compound, in data set [2], the “Detection in brain tissue” value is “could be detected”, the “Mean concentrations±sd in brain after multiple doses” value is 1600 ± 200 ng/mL and the “Effect on plasma concentration of DHC” value is on record as “could both increase the plasma concentration of DHC”. For the same compound, in data set [3] (brain homogenate), the “Recoveries after repeated freezing-thawing for three times” value is “over 100%”. Also, the “Recoveries after repeated freezing-thawing for three times” value in data set [3] (plasma) was “over 100%”. In addition, in data set [4], the “Solubility in DMSO” value was “well dissolved”.
As for `O=C(/C=C/C=C/c1ccc2c(c1)OCO2)N1CCCCC1` [PIP, Piperine, reference compound], in data set [5] (setting [8]), the concentration at 40 min was 2100 ± 700 ng/mL, the concentration at 60 min turned out to be 4200 ± 700 ng/mL, the concentration at 90 min turned out to be 2600 ± 500 ng/mL and the concentration at 150 min worked out at 2400 ± 900 ng/mL. Moreover, in data set [5] (setting [8]), the concentration at 210 min came out at 2200 ± 500 ng/mL, the concentration at 20 min is 1400 ± 400 ng/mL, the concentration at 270 min was 1700 ± 400 ng/mL and the concentration at 330 min came out at 1400 ± 200 ng/mL. Further, in data set [5], the area under the curve (AUC) is 11700 ng·h/mL, the Cmax was determined as 4200 ± 700 ng/mL, the half-life was found to be 2.79 ± 0.59 h and the Tmax was 1.13 h. For the same compound, the “Effect of combined administration with CUR on plasma concentration of DHC” value in data set [5] was “no obvious effect”. The “Mean concentrations±sd, PIP in plasma after multiple doses” value in data set [2] (Group II: CUR and PIP) was 2400 ± 500 ng/mL. In data set [2], the “Detection in brain tissue” value is “could be detected”, the “Mean concentrations±sd in brain after multiple doses” value came to 2100 ± 100 ng/mL and the “Effect on plasma concentration of DHC” value is listed as “could both increase the plasma concentration of DHC”. For the same compound, the “Recoveries after repeated freezing-thawing for three times” value in data set [3] (brain homogenate) is “over 100%”. Also, the “Recovery after 12 h placement at room temperature” value in data set [3] (brain homogenate samples) was “only showed slight decrease”. Further, in data set [3] (plasma), the “Recoveries after repeated freezing-thawing for three times” value is listed as “over 100%”. The “Recoveries after being kept at room temperature for 12 h” value in data set [3] is reported as “lower than 75%”. The “Solubility in DMSO” value in data set [4] was “well dissolved”.
With `C[S+](C)[O-]` [DMSO, dimethyl sulfoxide], in data set [2] (DMSO as solvent of intragastric administration for five consecutive days, SD rats), the “Adverse reactions in the experimental animals” value was “no adverse reactions occurred”. Moreover, the LD50 with rats is 28300 mg/kg.

As usually defined, the AUC is concentration integrated over time. Usually Cmax stands for the highest concentration seen after dosing. One may read the Tmax as the time at which the peak concentration occurs. For orientation: LD50 means the dose at which mortality reaches 50%.
